# Test results reported in patent US8383597B2, “G proteins in tumor growth and angiogenesis” (Cornell Research Foundation, Inc., priority 2006, dated 2013).
# “Also recorded” adds a separate entry of the source. d = 2'-deoxy (DNA); r = 2'-OH (RNA)
# How the values were obtained:
# [1] = system: mouse endothelial SVEC4-10 cells; assay: Chamber assay of VEGF-induced migration of SVEC4-10 endothelial cells; assay type: cell-based; conditions: chamber assay (FIG. 9B)
# Procedure: Chamber Cell Migration Assay: Cell migration was assayed in Boyden chambers [8.0 μm pore size polyethylene terephthalate membrane, FALCON cell culture insert (Becton-Dickinson)] (Shan et al., Proc Natl Acad Sci USA 102: 3772-3776 (2005); Yang and Huang, J Biol Chem 280: 27130-27137 (2005)). Cells were first trypsinized and counted. […] Transwells were incubated for 4-6 hours at 37° C. Cells on the inside of the transwell inserts were removed with a cotton swab, and cells on the underside of the insert were fixed and stained. Photographs of three random fields were taken, and the number of cells counted to determine the average number of cells that had transmigrated.
# (§1) RNA Interference: RNA interference was performed with Qiagen's 2-For-Silencing siRNA Duplexes. Cells were plated in 6-well plates the day before transfection. 2.5 μg siRNA were diluted in 100 μL buffer EC-R (Qiagen). 7.5 μL RNAiFect transfection reagent (Qiagen) were added to form complexes. After incubation for 15 minutes at room temperature, the complexes were added to the cells. Two days later, the cells were again transfected with the same amount of siRNA. Cells were assayed after three more days' incubation. The sequences for Gα13 siRNA oligonucleotides were r(GUA CGA CUU UGA AAU UAA A)dTdT (SEQ ID NO: 6) for the sense strand and r(UUU AAU UUC AAA GUC GUA C)dTdC (SEQ ID NO: 7) for the antisense strand. […]
# mouse Gα13 [2] = assay: Western blot of Gα13 protein level in SVEC4-10 endothelial cells after RNA interference; assay type: cell-based; conditions: SVEC4-10 cells, Western blot (FIG. 9A)
# Procedure: (§2) RNA Interference: RNA interference was performed with Qiagen's 2-For-Silencing siRNA Duplexes. Cells were plated in 6-well plates the day before transfection. 2.5 μg siRNA were diluted in 100 μL buffer EC-R (Qiagen). 7.5 μL RNAiFect transfection reagent (Qiagen) were added to form complexes. After incubation for 15 minutes at room temperature, the complexes were added to the cells. Two days later, the cells were again transfected with the same amount of siRNA. Cells were assayed after three more days' incubation. The sequences for Gα13 siRNA oligonucleotides were r(GUA CGA CUU UGA AAU UAA A)dTdT (SEQ ID NO: 6) for the sense strand and r(UUU AAU UUC AAA GUC GUA C)dTdC (SEQ ID NO: 7) for the antisense strand. The sequences for the second pair of oligonucleotides used in the interference assay (data not shown) were r(GGG UGA GUC UGU AAA GUA U)dTdT (SEQ ID NO: 8) for the sense strand and r(AUA CUU UAC AGA CUC ACC C)dAdG (SEQ ID NO: 9) for the antisense strand. The control siRNA oligonucleotides were supplied by Qiagen.
# tubulin [3] = assay: Western blot of tubulin protein level in MEF cells after RNA interference; assay type: cell-based, mouse; conditions: siRNA transfected MEF cells, Western blot (FIG. 3C)
# Procedure: as §2
# mouse Gα13 [4] = assay: Western blot of Gα13 protein level in MEF cells after RNA interference; assay type: cell-based; conditions: wild-type MEF cells, siRNA transfection, Western blot (FIG. 3C)
# Procedure: as §2
# tubulin [5] = assay: Western blot of tubulin protein level in SVEC4-10 endothelial cells after RNA interference; assay type: cell-based, mouse; conditions: SVEC4-10 cells, Western blot (FIG. 9A)
# Procedure: as §2
# Gα12 [6] = assay: Western blot of Gα12 protein level in MEF cells after RNA interference; assay type: cell-based, mouse; conditions: siRNA transfected MEF cells, Western blot (FIG. 3C)
# Procedure: as §2
# MEF cells [7] = assay: Chamber cell migration assay, siRNA-treated MEF cells; assay type: cell-based, mouse
# Procedure: Chamber Cell Migration Assay: Cell migration was assayed in Boyden chambers [8.0 μm pore size polyethylene terephthalate membrane, FALCON cell culture insert (Becton-Dickinson)] (Shan et al., Proc Natl Acad Sci USA 102: 3772-3776 (2005); Yang and Huang, J Biol Chem 280: 27130-27137 (2005)). Cells were first trypsinized and counted. Then 5-10×10^4 cells in serum free medium (300 μL) were added to the upper chamber, and 500 μL of appropriate medium with 10% FBS or 20 ng/mL PDGF were added to the lower chamber. Transwells were incubated for 4-6 hours at 37° C. Cells on the inside of the transwell inserts were removed with a cotton swab, and cells on the underside of the insert were fixed and stained. Photographs of three random fields were taken, and the number of cells counted to determine the average number of cells that had transmigrated.
# as §1, with “incubation.” for “incubation. The sequences for Gα13 siRNA oligonucleotides were r(GUA CGA CUU UGA AAU UAA A)dTdT (SEQ ID NO: 6) for the sense strand and r(UUU AAU UUC AAA GUC GUA C)dTdC (SEQ ID NO: 7) for the antisense strand.”
# Gα12 [8] = assay: Western blot of Gα12 protein level in SVEC4-10 endothelial cells after RNA interference; assay type: cell-based, mouse; conditions: SVEC4-10 cells, Western blot (FIG. 9A)
# Procedure: as §2
# MEF cells [9] = assay: Wound healing assay, siRNA-treated MEF cells; assay type: cell-based, mouse; conditions: PDGF stimulation (FIG. 3E)
# Procedure: Wound Healing Assay: Wild type and Gα12^−/−Gα13^−/− MEF cells isolated from E8.0 Gα12^−/−Gα13^−/− embryos (Gu et al., Proc Natl Acad Sci USA 99: 9352-9357 (2002)) in Dulbecco's Modified Eagle Medium (DMEM) (Invitrogen) containing 10% FBS were seeded into wells of 24-multiwell plates (Becton-Dickinson) (Shan et al., Proc Natl Acad Sci USA 102: 3772-3776 (2005); Yang and Huang, J Biol Chem 280: 27130-27137 (2005)). After they grew to confluency, wounds were made with sterile pipet tips. Cells were washed with Phosphate Buffered Saline (PBS) and refreshed with medium containing 10% fetal bovine serum (FBS) or 20 ng/mL platelet-derived growth factor (PDGF-BB). After overnight incubation at 37° C., cells were fixed and photographed. MEF cells were transfected with Lipofectamine-2000 (transfection efficiency was 10 to 30%) (Invitrogen).
# as §1, with “incubation.” for “incubation. The sequences for Gα13 siRNA oligonucleotides were r(GUA CGA CUU UGA AAU UAA A)dTdT (SEQ ID NO: 6) for the sense strand and r(UUU AAU UUC AAA GUC GUA C)dTdC (SEQ ID NO: 7) for the antisense strand.”
substance,measurement,setting,value
"r(GUA CGA CUU UGA AAU UAA A)dTdT (sense GUACGACUUUGAAAUUAAATT; antisense UUUAAUUUCAAAGUCGUACTC; siRNA; sugars from the 5' end r19 d2, backbone not given here) [Gα13 siRNA, siRNA duplex against mouse Gα13]",VEGF-induced endothelial cell migration,[1],reduced
same,endogenous mouse Gα13 protein level,mouse Gα13 [2],reduced
same,protein level of tubulin,tubulin [3],not changed
same,level of endogenous mouse Gα13 protein,mouse Gα13 [4],significantly reduced
same,protein level of tubulin,tubulin [5],no effect
same,protein level of Gα12,Gα12 [6],not changed
same,"cell migratory response to PDGF stimulation, chamber assay",MEF cells [7]; PDGF stimulation (FIG. 3D),defective cell migratory response
same,"migration of cells without PDGF, compared with control RNAi","MEF cells [7]; without PDGF (or other stimuli), data not shown",not significantly different
same,protein level of Gα12,Gα12 [8],no effect
same,"cell migratory response to PDGF stimulation, wound-healing assay",MEF cells [9],defective cell migratory response; also recorded: reduced
